Where two headings read alike, the source gives them in different places.
Experiments:
[1] = tested on: HL-60 (human promyelocytic leukemia cell line); test: MTT cell viability (antiproliferative) assay, HL-60; conditions: for SI (selectivity index): Vero (IC50) on HL-60 (IC50); for IC50: mean ± SD of three independent experiments
Method: (§1) HL-60 (human promyelocytic leukemia cell line) and Vero (African green monkey kidney) cell lines from American Type Culture Collection (ATCC-LGC) were each grown in Dulbecco’s modified Eagle’s medium (DMEM) with 4.5 g/L glucose (Sigma-Aldrich), supplemented with 10% fetal bovine serum (Gibco), 1% of a penicillin–streptomycin mixture (10.000 and 10 mg/mL, respectively), and 200 mM L-glutamine. Cells were maintained at 37 °C in 5% CO2 and 98% humidity.
(§2) Viable cells were assessed using the colorimetric MTT [3-(4,5-dimethylthiazol-2-yl)-2,5-diphenyl tetrazolium bromide reduction assay [49]. A cell suspension (1 × 10^4 /200 μL/well) in log-phase of growth seeded in DMEM, supplemented with 5% fetal bovine serum in microtiter well plates (96 wells, Iwaki, London, UK) were added to compounds predissolved in dimethylsulphoxide (DMSO) at different concentrations. After 48 h of incubation, 20 μL/well of the MTT solution (5 mg/mL in phosphate buffered saline, PBS) were added and plates incubated for 4 h at 37 °C. Subsequently, the medium/MTT solutions were removed carefully by aspiration and replaced with 150 μL/well of DMSO to dissolve the formazan crystals. Absorbance was measured in a microplate reader (Infinite M200, Tecan) at a wavelength of 550 nm. Solvent control cultures were considered 100% and percentage of viable treated cells were plotted against compound concentrations. The 50% cell viability value (IC50) was calculated from the curve. Each experiment was performed at least three times in triplicates. Data are given in arithmetic means ± SD. Selectivity ratio was defined as IC50 value for the tumoral cell line divided by IC50 value for the Vero cell line.

[2] = tested on: Vero (African green monkey kidney) cell line; test: MTT cell viability assay, non-tumoral Vero cells; conditions: read-out: Cytotoxic activity IC50, Vero; MTT, 48 h incubation; mean ± SD of three independent experiments
Method: as §1, §2

[3] = MTT cell viability assay, non-tumoral Vero cells; conditions: African green monkey, Vero cells (African green monkey kidney, non-tumoral)
Method: as §1, §2

in vitro = conditions: African green monkey
Method: as §1, §2

[4] = tested on: Vero (African green monkey kidney) cell line; conditions: 48 h
Method: as §1, §2

[5] = tested on: HL-60 (human promyelocytic leukemia cell line); conditions: 48 h
Method: as §1, §2

[6] = read-out: Cytotoxic activity IC50, HL 60, MTT, 48 h incubation
[7] = Homo sapiens, HL-60, 48 h, read-out: Cytotoxic activity IC50, HL 60, MTT, 48 h incubation
[8] = Cytotoxic activity IC50, Vero, MTT, 48 h incubation, mean ± SD of three independent experiments

| Compound | SI (selectivity index) [1] | IC50 [1, 7] | IC50 at 48 h (in vitro; Cytotoxic activity IC50, Vero) | other results |
| --- | --- | --- | --- | --- |
| 4β,16β,27-trihydroxy-1-oxo-witha-2,5,17(20),24-tetraenolide [Compound 9] | 1.7 |  |  | IC50 [1, 6]: 14.8 ± 0.68 µM; IC50 [2]: 25.7 ± 0.65 µM |
| 4β,16β-dihydroxy-1-oxo-witha-2,5,17(20),24-tetraenolide [Compound 10] | >2.4 |  |  | IC50 [1, 6]: 16.8 ± 0.75 µM; IC50 [2]: > 40 µM |
| 16β,27-dihydroxy-1,4-dioxo-witha-2,5,17(20),24-tetraenolide [Compound 11] | >1.4 |  |  | IC50 [1, 6]: 27.8 ± 0.45 µM; IC50 [2]: > 40 µM |
| CC1=C(CO)C(=O)OC(C(C)C2(O)CCC3C4CC(O)C56C=CC(OO5)C(=O)C6(C)C4CCC32C)C1 (stereo not drawn) [Compound 1, 6β,17α,27-Trihydroxy-2α,5α-dioxan-1-oxo-witha-3,24-dien-26,22-olide] | >3.1 |  |  | IC50 [1, 6]: 12.8 ± 0.24 µM; IC50 at 48 h [3]: > 40 µM |
| CC1=C(CO)C(=O)OC(C(C)C2(O)CCC3C4CC(O)C56C=CC(OO5)C(=O)C6(C)C4CCC32C)C1 (stereo not drawn) [Compound 2, 6β,17α,27-Trihydroxy-2β,5β-dioxan-1-oxo-witha-3,24-dien-26,22-olide] | >1.5 |  |  | IC50 [1, 6]: 26.7 ± 0.6 µM; IC50 [2]: > 40 µM |
| CC1=C(CO)C(=O)OC(C(C)C2CCC3C4CC(O)C56C=CC(OO5)C(=O)C6(C)C4CCC23C)C1 (stereo not drawn) [Compound 3, 6β,27-Dihydroxy-2α,5α-dioxan-1-oxo-witha-3,24-dien-26,22-olide] | 4.9 | 3.3 ± 0.45 µM |  | IC50 at 48 h [3, 8]: 16 ± 0.73 µM |
| CC1=C(CO)C(=O)OC(C(C)C2=CCC3C4CC(O)C56C=CC(OO5)C(=O)C6(C)C4CCC23C)C1 (stereo not drawn) [Compound 4, 6β,27-Dihydroxy-2α,5α-dioxan-1-oxo-witha-3,16,24-trien-26,22-olide] | 5.1 | 6.2 ± 0.1 µM |  | IC50 at 48 h [3, 8]: 31.6 ± 0.08 µM |
| CC1=C(CO)C(=O)OC(C(C)C2=CCC3C4CC=C5C(O)C=CC(=O)C5(C)C4CCC23C)C1 (stereo not drawn) [Compound 5, 4β,27-dihydroxy-1-oxo-witha-2,5,16,24-tetraenolide] | 0.8 | 8.2 ± 0.09 µM | 6.4 ± 0.12 µM |  |
| CC1=C(C)C(=O)OC(C(C)C2=CCC3C4CC=C5C(O)C=CC(=O)C5(C)C4CCC23C)C1 (stereo not drawn) [Compound 6, 4β-hydroxy-1-oxo-witha-2,5,16,24-tetraenolide] | 1.6 | 7 ± 0.55 µM | 11.5 ± 0.09 µM |  |
| CC1=C(CO)C(=O)OC(C(C)C2CCC3C4CC=C5C(O)C=CC(=O)C5(C)C4CCC23C)C1 (stereo not drawn) [Compound 7, 4β,27-dihydroxy-1-oxo-witha-2,5,24-trien olide] | >2.6 | 15.7 ± 0.04 µM | > 40 µM |  |
| CC1=C(CO)C(=O)OC(C(C)C2=CCC3C4CC=C5C(=O)C=CC(=O)C5(C)C4CCC23C)C1 (stereo not shown) [Compound 8, 27-hydroxy-1,4-dioxo-witha-2,5,16,24-tetraenolide] | 3.7 | 4.2 ± 0.25 µM | 15.5 ± 0.35 µM |  |
| CC1=C(CO)C(=O)OC(C(C)C2(O)CCC3C4CC=C5C(O)C=CC(=O)C5(C)C4CCC32C)C1 (stereo not drawn) [Compound 12, 4α,17α,27-trihydroxy-1-oxo-witha-2,5,24-trienolide] | >6.1 | 6.6 ± 0.14 µM | > 40 µM | fold more potent than the β-disposition (13) ([1]; HL-60, versus 13): 2 fold |
| CC1=C(CO)C(=O)OC(C(C)C2(O)CCC3C4CC=C5C(O)C=CC(=O)C5(C)C4CCC32C)C1 (stereo not drawn) [Compound 13, 4β,17α,27-trihydroxy-1-oxo-witha-2,5,24-trienolide] | 1.9 |  |  | IC50 [4]: 23.8 ± 0.41 µM; IC50 [5]: 12.3 ± 0.11 µM |
| CC1=C(CO)C(=O)O[C@@H]([C@@H](C)[C@H]2CC[C@H]3[C@@H]4C[C@H]5O[C@]56[C@@H](O)C=CC(=O)[C@]6(C)[C@H]4CC[C@]23C)C1 [Compound 14, withaferin A] | 33.0 |  |  | IC50 [1, 6]: 0.2 ± 0.02 µM; IC50 ([1]; read-out: Cytotoxic activity IC50, HL 60, MTT, 48 h incubation, listed as WA): ≤ 0.5 µM; IC50 at 48 h [3, 8]: 6.4 ± 0.21 µM |
| CC1=C(C)C(=O)OC(C(C)C2CCC3C4CC5OC56C(O)C=CC(=O)C6(C)C4CCC23C)C1 (stereo not drawn) [Compound 15, 5β,6β-epoxy-4β-hydroxy-1-oxo-witha-2,24-dienolide] |  | ≤ 0.5 µM | 4.6 ± 0.09 µM | IC50 [5]: 0.5 ± 0.07 µM |
| CC(=O)OCC1=C(C)CC(C(C)C2CCC3C4CC5OC56C(O)C=CC(=O)C6(C)C4CCC23C)OC1=O (stereo not shown) [Compound 16, 27-acetyl-withaferin A] |  | ≤ 0.5 µM | 5.7 ± 0.13 µM | IC50 [5]: 0.4 ± 0.06 µM |
| CC1=C(CO)C(=O)OC(C(C)=C2C(O)CC3C4CC5OC56C(O)C=CC(=O)C6(C)C4CCC23C)C1 (stereo not drawn) [Compound 18, 5β,6β-epoxy-4β,16β,27-trihydroxy-1-oxo-witha-2,17(20),24-trienolide] | 4.2 | 8.2 ± 0.43 µM | 34.7 ± 0.75 µM |  |
| CC1=C(CO)C(=O)O[C@@H]([C@@H](C)C2=CC[C@H]3[C@@H]4C[C@H]5O[C@]56[C@@H](O)C=CC(=O)[C@]6(C)[C@H]4CC[C@]23C)C1 [Compound 19, witharistatin] | 3.8 | ≤ 0.5 µM |  | IC50 at 48 h (in vitro): 1.9 ± 0.08 µM; IC50 [5]: 0.5 ± 0.05 µM |
| CC1=C(C)C(=O)OC(C(C)C2=CCC3C4CC5OC56C(O)C=CC(=O)C6(C)C4CCC23C)C1 (stereo not shown) [Compound 20, 27-deoxy-16-en-withaferin A] | 2.2 | 4.6 ± 0.35 µM | 10 ± 0.61 µM |  |
| CC1=C(C)C(=O)OC(C(C)C2CC=C3C4CC5OC56C(O)C=CC(=O)C6(C)C4CCC32C)C1 (stereo not drawn) [Compound 21, 5β,6β-epoxy-4β-hydroxy-1-oxo-22R-witha-2,14,24-trienolide] | 6.9 | 0.9 ± 0.05 µM | 6.2 ± 0.11 µM |  |
| CC1=C(CO)C(=O)OC(C(C)C2CCC3C4CC5OC56C(=O)C=CC(=O)C6(C)C4CCC23C)C1 (stereo not shown) [Compound 22, 4-dehydro-withaferin A] | 24.1 | 0.7 ± 0.09 µM | 16.9 ± 0.7 µM |  |
| CC1=C(CO)C(=O)OC(C(C)C2(O)CCC3C4CC5OC56C(O)C=CC(=O)C6(C)C4CCC32C)C1 (stereo not drawn) [Compound 23, 5β,6β-epoxy-4β,17α,27-trihydroxy-1-oxo-witha-2,24-dienolide] | >6.2 | 6.5 ± 0.55 µM | > 40 µM |  |
| CC1=C(CO)C(=O)O[C@@H]([C@@H](C)[C@H]2CC[C@H]3[C@@H]4C[C@H]5O[C@]56[C@@H](O)[C@@H](O)CC(=O)[C@]6(C)[C@H]4CC[C@]23C)C1 [Compound 24, viscosalactone B] |  | > 40 µM |  | IC50 at 48 h [3, 8]: > 40 µM |
| CC(=O)OCC1=C(C)CC(C(C)C2CCC3C4CC5OC56C(O)C(O)CC(=O)C6(C)C4CCC23C)OC1=O (stereo not shown) [Compound 25, 27-O-acetyl-viscosalactone B] | 7.9 | 1.5 ± 0.54 µM | 11.8 ± 0.1 µM | fold more potent than its corresponding hydroxyl derivative 24 ([1]; HL-60 cytotoxic effect, versus 24): 26 fold |
| CC1=C(CO)C(=O)OC(C(C)C2CCC3C4CC(O)C5(O)C(O)C=CC(=O)C5(C)C4CCC23C)C1 (stereo not shown) [Compound 26, 2,3-dehydrosomnifericin] | >3.0 | 13.4 ± 0.85 µM | > 40 µM |  |
| CC1=C(CO)C(=O)OC(C(C)C2CCC3C4CC(Cl)C5(O)C(O)C=CC(=O)C5(C)C4CCC23C)C1 (stereo not drawn) [Compound 27, 6α-chloro-5β-hydroxywithaferin A] | 7.1 | 1.1 ± 0.2 µM | 7.8 ± 0.36 µM | fold more potent than its corresponding hydroxyl derivative 26 ([1]; HL-60 cytotoxic effect, versus 26): 12 fold |
| CC1=C(CO)C(=O)OC(C(C)C2CCC3C4CC(O)C5(C=O)C=CC(=O)C5(C)C4CCC23C)C1 (stereo not drawn) [Compound 28, 4β-formyl-6β,27-dihydroxy-1-oxo-witha-2,24-dienolide] | >1.3 | 30.5 ± 0.45 µM |  | IC50 at 48 h [3]: > 40 µM |
| CC1=C(CO)C(=O)OC(C(C)C2CCC3C4CC(O)C5(C=O)CCC(=O)C5(C)C4CCC23C)C1 (stereo not drawn) [Compound 29, 4β-formyl-6β,27-dihydroxy-1-oxo-witha-24-enolide] | >2.1 | 19.2 ± 0.84 µM |  | IC50 at 48 h [3, 8]: > 40 µM |
| COc1cc([C@@H]2c3cc4c(cc3[C@@H](O[C@@H]3O[C@@H]5CO[C@@H](C)O[C@H]5[C@H](O)[C@H]3O)[C@H]3COC(=O)[C@H]23)OCO4)cc(OC)c1O [Etoposide, reference compound] | 8.2 | 2.4 ± 0.1 µM |  | IC50 at 48 h [3, 8]: 19.5 ± 0.16 µM |
